Results on five compounds are retold here after patent US7662857B2, “Diagnostic agents for pancreatic exocrine function” (Tokyo Gas Company Limited, priority 2001, dated 2010).

Data set [1] deals with pancreatic exocrine function. Briefly: 13C-dipeptide breath test in chronic pancreatitis rats (oleic acid injected into pancreatic duct). The format is in vivo, rat. The following applies: oral 35 μmol/kg, mean±SD. Here is the method:
(§1) Overnight-fasted rats (male, Wistar, 8-week old) in the awake state were individually fixed in a rat holder of a microwave irradiation apparatus. The breath was collected at a rate of about 100 to 300 ml/min using a stroke pump (Variable Stroke Pump VS-500; Shibata Kagaku Kogyo), and the CO2 concentration therein was maintained at about 3%. A Perma Pure drier (MD-050-12P; Perma Pure INC.) was set between the rat holder and the stroke pump to remove water vapor from the breath. When the CO2 concentration was stabilized, the rat was temporarily released from the rat holder. A ^13C-labeled dipeptide or a sodium salt thereof each dissolved in distilled water was administered to the stomach of the rat using an oral probe [dose: 35 μmol/kg (5 ml/kg)]. The breath was sampled with a syringe every 5 min until up to 20 min. A 15 ml sample was transferred from the syringe into a vacuum vial (10 ml), sealed and subjected to automated analysis by GC-MS (Breath MAT) [FinniganMAT]. Δ^13C(‰) was calculated from δ^13C values which are ^13C values of a sample (i.e. differences from the standard substance PDB) using the following formula. Δ^13C(‰)=(δ^13C)tmin−((δ^13C)0 min <Breath MAT Measuring Conditions>
Chronic pancreatitis rats were created according to the method of Mundlos et al., Pancreas 1:29 (1986). Oleic acid was injected into the pancreatic duct of 5-week old Wistar male rats. After breeding for 3 weeks, they were used in ^13C-dipeptide breath tests.
(§2) As in Example 12, Bz-Phe-(^13C-Ala)-ONa [dose: 12.6 mg/kg (35 μmol/kg)], Bz-Gln-(^13C-Ala)-ONa [dose: 12.0 mg/kg (35 μmol/kg)], Bz-Val-(^13C-Ala)-ONa [dose: 11.0 mg/kg (35 μmol/kg)], Bz-Tyr-(^13C-Ala)-ONa [dose: 13.2 mg/kg (35 μmol/kg)], Bz-Met-(^13C-Ala)-ONa [dose: 12.1 mg/kg (35 μmol/kg)], Bz-Ser-(^13C-Ala)-ONa [dose: 10.6 mg/kg (35 μmol/kg)], Bz-Thr-(^13C-Ala)-ONa [dose: 11.0 mg/kg (35 μmol/kg)] or Boc-Phe-(^13C-Ala)-ONa [dose: 8.84 mg/kg (24.6 μmol/kg)] was administered orally to normal rats and chronic pancreatitis rats. Then, the time course of the degree of increase of the ^13C concentration in exhaled CO2 (Δ^13C(‰)) was measured.

Data set [2] relates to pancreatic exocrine function. Briefly: 13C-dipeptide breath test in normal rats (Δ13C in exhaled CO2 after oral administration). Conditions: for Δ^13C(‰) peak value / Peak time: Table 1, overnight-fasted Wistar rats, oral 35 μmol/kg (5 ml/kg); for Δ^13C(‰) peak value: exhaled CO2; for Peak time: peak in time course of Δ13C(‰) up to 20 min; for Δ^13C(‰) value at 5 min after the administration / Δ^13C(‰) value at 10 min after the administration / Δ^13C(‰) value at 15 min after the administration / Δ^13C(‰) value at 20 min after the administration: normal rats, mean±SD; for Δ^13C(‰) value at 5 min after the administration / Δ^13C(‰) value at 10 min after the administration / Δ^13C(‰) value at 15 min after the administration / Δ^13C(‰) peak value compared with the peak value of Bz-Ala-(^13C-Ala)-ONa / Δ^13C(‰) value at 20 min after the administration: oral 35 μmol/kg; for Δ^13C(‰) peak value compared with the peak value of Bz-Ala-(^13C-Ala)-ONa: rats, comparison in words. The format is in vivo, rat. The procedure:
as §1
Apparatus: Breath MAT plus (Finningan)
Using Ac-Met-(^13C-Ala)-ONa, Z-Met-(^13C-Ala)-ONa, Boc-Met-(^13C-Ala)-ONa or Boc-Phe-(^13C-Ala)-ONa [dose: 35 μmol/kg (5 ml/kg)], ^13C-breath tests were carried out in the same manner as in Example 12. The resultant Δ^13C(‰) peak values were compared with the Δ^13C(‰) peak value in the Bz-Ala-(^13C-Ala)-ONa breath test.
as §2

Take `C[C@H](NC(=O)[C@H](Cc1ccccc1)NC(=O)c1ccccc1)[13C](=O)[O-].[Na+]` [Na salt of Bz-Phe-(^13C-Ala), N-benzoyl-L-phenylalanyl-^13C-L-alanine]: in data set [1], the “Δ^13C(‰) value at 5 min after the administration” value (from here on “Δ^13C(‰) value at 5 min”) is 4.17±3.95 ‰, the “Δ^13C(‰) value at 10 min after the administration” value (“Δ^13C(‰) value at 10 min” below) is on record as 14.56±10.79 ‰ and the “Δ^13C(‰) value at 15 min after the administration” value (“Δ^13C(‰) value at 15 min” below) is 22.80±12.36 ‰. In data set [2], the “Δ^13C(‰) peak value” is on record as 55.62 ‰, the “Peak time” value worked out at 10 min, the “Δ^13C(‰) value at 5 min” value is on record as 29.32±13.57 ‰ and the “Δ^13C(‰) value at 10 min” value is 55.62±6.62 ‰. In data set [2], the “Δ^13C(‰) value at 15 min” value was 45.44±3.44 ‰ and the “Δ^13C(‰) peak value compared with the peak value of Bz-Ala-(^13C-Ala)-ONa” value is on record as “higher”.

Regarding `C[C@H](NC(=O)[C@H](CO)NC(=O)c1ccccc1)[13C](=O)[O-].[Na+]` [Na salt of Bz-Ser-(^13C-Ala), N-benzoyl-L-seryl-^13C-L-alanine], in data set [1], the “Δ^13C(‰) value at 5 min” value is 1.07±1.43 ‰, the “Δ^13C(‰) value at 10 min” value is reported as 5.94±8.13 ‰, the “Δ^13C(‰) value at 15 min” value is 10.34±11.99 ‰ and the “Δ^13C(‰) value at 20 min after the administration” value (“Δ^13C(‰) value at 20 min” below) was 12.80±11.97 ‰. Besides, in data set [2], the “Δ^13C(‰) peak value” is reported as 47.48 ‰, the “Peak time” value worked out at 15 min, the “Δ^13C(‰) value at 5 min” value is reported as 8.29±4.94 ‰ and the “Δ^13C(‰) value at 10 min” value is 35.91±11.85 ‰. Also, in data set [2], the “Δ^13C(‰) value at 15 min” value is reported as 47.48±12.89 ‰, the “Δ^13C(‰) value at 20 min” value is reported as 43.04±5.30 ‰ and the “Δ^13C(‰) peak value compared with the peak value of Bz-Ala-(^13C-Ala)-ONa” value is on record as “higher”.

Take `C[C@H](NC(=O)[C@@H](NC(=O)c1ccccc1)[C@@H](C)O)[13C](=O)[O-].[Na+]` [Na salt of Bz-Thr-(^13C-Ala), N-benzoyl-L-threonyl-^13C-L-alanine]: in data set [1], the “Δ^13C(‰) value at 10 min” value was 12.67±19.74 ‰ and the “Δ^13C(‰) value at 15 min” value is on record as 19.78±24.70 ‰. In data set [2], the “Δ^13C(‰) peak value” is 47.36 ‰, the “Peak time” value was determined as 10 min, the “Δ^13C(‰) value at 10 min” value is given as 47.36±10.99 ‰ and the “Δ^13C(‰) value at 15 min” value is 47.11±5.67 ‰. In addition, the “Δ^13C(‰) peak value compared with the peak value of Bz-Ala-(^13C-Ala)-ONa” value in data set [2] is “higher”.

Turning to `C[C@H](NC(=O)[C@H](Cc1ccc(O)cc1)NC(=O)c1ccccc1)[13C](=O)[O-].[Na+]` [Na salt of Bz-Tyr-(^13C-Ala), N-benzoyl-L-tyrosyl-^13C-L-alanine], in data set [1], the “Δ^13C(‰) value at 5 min” value is given as 4.35±3.11 ‰, the “Δ^13C(‰) value at 10 min” value is recorded as 15.65±7.93 ‰, the “Δ^13C(‰) value at 15 min” value is 24.68±9.48 ‰ and the “Δ^13C(‰) value at 20 min” value is reported as 29.25±9.98 ‰. Moreover, in data set [2], the “Δ^13C(‰) peak value” is given as 52.64 ‰, the “Peak time” value came out at 15 min, the “Δ^13C(‰) value at 5 min” value is 10.33±6.34 ‰ and the “Δ^13C(‰) value at 10 min” value was 33.62±4.76 ‰. Further, in data set [2], the “Δ^13C(‰) value at 15 min” value is reported as 52.64±11.32 ‰, the “Δ^13C(‰) value at 20 min” value is given as 45.61±5.27 ‰ and the “Δ^13C(‰) peak value compared with the peak value of Bz-Ala-(^13C-Ala)-ONa” value is recorded as “higher”.

Regarding `CC(C)[C@H](NC(=O)c1ccccc1)C(=O)N[C@@H](C)[13C](=O)[O-].[Na+]` [Na salt of Bz-Val-(^13C-Ala), N-benzoyl-L-valyl-^13C-L-alanine], in data set [1], the “Δ^13C(‰) value at 5 min” value is recorded as 2.21±2.74 ‰, the “Δ^13C(‰) value at 10 min” value was 10.62±12.40 ‰, the “Δ^13C(‰) value at 15 min” value is listed as 18.80±19.39 ‰ and the “Δ^13C(‰) value at 20 min” value is reported as 23.95±19.38 ‰. Also, in data set [2], the “Δ^13C(‰) peak value” was 52.89 ‰, the “Peak time” value came out at 15 min, the “Δ^13C(‰) value at 5 min” value is 13.98±6.59 ‰ and the “Δ^13C(‰) value at 10 min” value is 35.22±8.02 ‰. Besides, in data set [2], the “Δ^13C(‰) value at 15 min” value is listed as 52.89±11.18 ‰, the “Δ^13C(‰) value at 20 min” value was 45.38±6.53 ‰ and the “Δ^13C(‰) peak value compared with the peak value of Bz-Ala-(^13C-Ala)-ONa” value is reported as “higher”.
